Test results reported in patent US8513239B2, “Chiral cis-imidazolines” (Hoffmann-La Roche Inc., priority 2007, dated 2013).

The compounds below were run against interaction between p53 and MDM2 proteins (Homo sapiens, UniProt Q00987) (assay: HTRF assay of inhibition of p53-MDM2 interaction (GST-MDM2 binding to biotinylated p53 peptide)). Details: recombinant GST-tagged MDM2, biotinylated p53 peptide, 0.2% BSA.
Method: The ability of the compounds to inhibit the interaction between p53 and MDM2 proteins was measured by an HTRF (homogeneous time-resolved fluorescence) assay in which recombinant GST-tagged MDM2 binds to a peptide that resembles the MDM2-interacting region of p53 (Lane et al.). Binding of GST-MDM2 protein and p53-peptide (biotinylated on its N-terminal end) is registered by the FRET (fluorescence resonance energy transfer) between Europium (Eu)-labeled anti-GST antibody and streptavidin-conjugated Allophycocyanin (APC).
Test is performed in black flat-bottom 384-well plates (Costar) in a total volume of […] containing:90 nM biotinylate peptide, 160 ng/ml GST-MDM2, 20 nM streptavidin-APC (PerkinElmerWallac), 2 nM Eu-labeled anti-GST-antibody (PerkinElmerWallac), 0.2% bovine serum albumin (BSA), 1 mM dithiothreitol (DTT) and 20 mM […] (TBS) buffer as follows: Add 10 uL of GST-MDM2 (640 ng/ml working solution) in reaction buffer to each well. Add 10 uL diluted compounds (1:5 dilution in reaction buffer) to each well, mix by shaking. Add 20 uL biotinylated p53 peptide (180 nM working solution) in reaction buffer to each well and mix on shaker. Incubate at 37° C. for 1 h. Add 20 uL streptavidin-APC and Eu-anti-GST antibody mixture (6 nM Eu-anti-GST and 60 nM streptavidin-APC working solution) in TBS buffer with 0.2% BSA, shake at room temperature for 30 minutes and read using a TRF-capable plate reader at 665 and 615 nm (Victor 5, Perkin ElmerWallac). If not specified, the reagents were purchased from Sigma Chemical Co.

Chain of interaction between p53 and MDM2 proteins (Q00987 whole entry): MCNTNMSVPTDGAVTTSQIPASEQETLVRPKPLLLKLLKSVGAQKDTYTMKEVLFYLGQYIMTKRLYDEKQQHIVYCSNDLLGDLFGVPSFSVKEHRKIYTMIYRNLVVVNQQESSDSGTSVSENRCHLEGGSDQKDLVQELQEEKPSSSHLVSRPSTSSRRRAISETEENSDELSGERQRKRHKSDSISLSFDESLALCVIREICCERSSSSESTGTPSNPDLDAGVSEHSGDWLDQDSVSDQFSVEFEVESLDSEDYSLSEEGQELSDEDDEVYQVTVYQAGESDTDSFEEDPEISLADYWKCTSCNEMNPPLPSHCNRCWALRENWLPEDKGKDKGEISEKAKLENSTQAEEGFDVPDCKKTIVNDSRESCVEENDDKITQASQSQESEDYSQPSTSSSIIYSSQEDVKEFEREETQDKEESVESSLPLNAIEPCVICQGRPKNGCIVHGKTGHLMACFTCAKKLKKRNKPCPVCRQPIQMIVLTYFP

**Q.** `CCOc1nc(C(C)(C)C)ncc1C1=N[C@@](C)(c2ccc(Cl)cc2)[C@@](C)(c2ccc(Cl)cc2)N1C(=O)N1CCC(N2CCCC2)CC1` (racemic) [Example 29, [2-(2-tert-Butyl-4-ethoxy-pyrimidin-5-yl)-4,5-bis-(4-chloro-phenyl)-4,5-dimethyl-4,5-dihydro-imidazol-1-yl]-(4-pyrrolidin-1-yl-piperidin-1-yl)-methanone] was tested. Which IC50 did it give?
**A.** 252 nM

**Q.** `CCOc1nc(C(C)(C)C)ncc1C1=N[C@@](C)(c2ccc(Cl)cc2)[C@@](C)(c2ccc(Cl)cc2)N1C(=O)N1CCN(CC(=O)N2CCOCC2)CC1` (racemic) [Example 40, Rac-2-{4-[(4S*,5R*)-2-(2-tert-Butyl-4-ethoxy-pyrimidin-5-yl)-4,5-bis-(4-chloro-phenyl)-4,5-dimethyl-4,5-dihydro-imidazole-1-carbonyl]-piperazin-1-yl}-1-morpholin-4-yl-ethanone] was tested. Which IC50 did it give?
**A.** 77 nM

**Q.** Which IC50 does the source give for `CCOc1nc(C(C)(C)C)ccc1C1=N[C@@](C)(c2ccc(Cl)cc2)[C@@](C)(c2ccc(Cl)cc2)N1C(=O)N1CCN(CCCS(C)(=O)=O)CC1` (racemic) [Example 9, Rac-[(4S*,5R*)-2-(6-tert-Butyl-2-ethoxy-pyridin-3-yl)-4,5-bis-(4-chloro-phenyl)-4,5-dimethyl-4,5-dihydro-imidazol-1-yl]-[4-(3-methanesulfonyl-propyl)-piperazin-1-yl]-methanone] here?
**A.** 178 nM

**Q.** Which IC50 does the source give for `CCOc1nc(C(C)(C)C)ncc1C1=N[C@@](C)(c2ccc(Cl)cc2)[C@@](C)(c2ccc(Cl)cc2)N1C(=O)N1CCN(CCOCCO)CC1` [Example 22, [(4S,5R)-2-(2-tert-Butyl-4-ethoxy-pyrimidin-5-yl)-4,5-bis-(4-chloro-phenyl)-4,5-dimethyl-4,5-dihydro-imidazol-1-yl]-{4-[2-(2-hydroxy-ethoxy)-ethyl]-piperazin-1-yl}-methanone] here?
**A.** 31 nM

**Q.** For `CCOc1nc(C(C)(C)C)ncc1C1=N[C@@](C)(c2ccc(Cl)cc2)[C@@](C)(c2ccc(Cl)cc2)N1C(=O)N1CCN(C2CCS(=O)(=O)CC2)CC1` [Example 4, [(4S,5R)-2-(2-tert-Butyl-4-ethoxy-pyrimidin-5-yl)-4,5-bis-(4-chloro-phenyl)-4,5-dimethyl-4,5-dihydro-imidazol-1-yl]-[4-(1,1-dioxo-hexahydro-thiopyran-4-yl)-piperazin-1-yl]-methanone], which IC50 is on record?
**A.** 46 nM
